Measurements taken from patent publication US12503455B2, “Nucleic acid-binding photoprobes and uses thereof” (Arrakis Therapeutics, Inc., priority 2017, dated 2025).

Columns and labels:
Assay type in all cases: binding
Aptamer 21 [1] = assay: Reverse transcriptase pausing (drop-off) gel assay of photo-crosslinking to Aptamer 21
Experimental: A solution of RNA at 2 to 5 μM in nuclease-free water was heated to 95° C. for 3 min and then cooled on ice for 2 min. This solution was diluted with ½ volume of 3×RNA folding buffer (60 mM TrisHCl pH 8, 300 mM KCl, 9 mM MgCl2) and incubated at 37° C. for 20 min. Folding was carried out immediately before use of the RNA in each experiment. In cases where a mixture of RNA molecules was used in vitro the RNAs were folded separately and then combined prior to the probing experiment.
Folded RNA (1 μM) was incubated with the photoaffinity probe (10 μM) in total 25 μL of buffer (20 mM TrisHCl pH 8, 100 mM KCl, 3 mM MgCl2) with 2.5% DMSO for 30 min at 37° C. to allow binding to come to equilibrium. The sample was then irradiated with long wave UV light (˜365 nm) for 30 min in a UV crosslinker (Fisher Scientific).
A 3.75 μL aliquot of 10 μM reverse transcription primer was added to the cross-linked RNA sample, which was then incubated for 5 min at 65° C. and then cooled on ice. The sample was then diluted to a final volume of 60 μL and final buffer concentration of 1× Protoscript-II buffer (New England Biolabs), 0.5 mM dNTPs, 10 mM DTT, 0.4 U/μL RNase Inhibitor (New England Biolabs), and 10 U/μL Protoscript-II (New England Biolabs). The reaction was incubated at 45° C. for 2 h, 65° C. for 20 min, and then 4° C.
The RNA was hydrolyzed by the addition of 4.8 μL of 2.5 M NaOH and heating at 95° C. for 5 min. The reaction was quenched by the addition of 0.9 μL of acetic acid. The cDNA was precipitated by the addition of 6.6 μL of 3 M sodium acetate pH 5 and 181 μL ethanol, cooling to −80° C. for 1 h, and then centrifuging at 20,500×g at 4° C. for 30 min. The cDNA pellet was washed twice with 500 μL of 70% ethanol and then air dried for 5 min.
The cDNA pellet was resuspended in 12 μL of 1×TBE-urea sample loading buffer (Bio-Rad) and heated to 95° C. for 5 min. The sample was then run on a pre-cast 8.6×6.7 cm TBE-urea 10% PAGE gel (Bio-Rad) at 120 V until the lower bromophenol blue dye reached the bottom of the gel. The gel was stained with 1×SYBR-gold (Invitrogen) in 1×TBE buffer at room temperature for 20 min covered from light. The gel fluorescence was imaged on an Azure c600 instrument.

Aptamer 21 [2] = assay: LC-MS analysis of cross-linked RNA
Experimental: Folded RNA (1.33 μM) was incubated with or without the photoaffinity probe (20 μM) in total 100 μL of buffer (20 mM TrisHCl pH 8, 100 mM KCl, 3 mM MgCl2) with 2% DMSO for 30 min at 37° C. to allow binding to come to equilibrium. The sample was then irradiated with long wave UV light (˜365 nm) for 30 min in a UV crosslinker (Fisher Scientific).
The RNA was then precipitated by adding 10 μL of 3 M sodium acetate pH 5 and 275 μL ethanol, cooling to −80° C. for 1 h, and then centrifuging at 20,500×g at 4° C. for 30 min. The RNA pellet was washed with 500 μL of 70% ethanol, air dried for 5 min, and then resuspended in 120 μL of water.
50 μL of RNA sample was injected onto Clarity 2.6 μm Oligo X-T column (50*2.1 mm, 60° C.), and the gradient and flowrate were as follows: 95% A/5% B to 75% A/25% B over 5 min, flowrate: 400 μL/min; 75% A/25% B to 30% A/70% B over 1 min, flowrate: 400 μL/min; 100% D over 1 min, flowrate: 500 μL/min; 95% A/5% B over 2 min, flowrate: 500 μL/min (A: 1% HFIPA (hexafluoroisopropyl alcohol), 0.1% DIEA (diisopropylethylamine), 1 μM EDTA (ethylenediamine tetraacetic acid) in H2O; B: 0.075% HFIPA, 0.0375% DIEA, 1 μM EDTA in 65/35 MeCN/H2O; D: 40/40/20% MeOH/MeCN/H2O); The LCMS instrument was a Thermo Finnigan LTQ, and ProMass deconvolution software coupled with Xcaliber were used for all data processing.

Aptamer 21-E = assay: Photo-crosslinking of ARK-547 with negative control Aptamer 21-E
Experimental: A 9.5 μL sample of folded RNA (2.6 μM) in buffer (20 mM TrisHCl pH 8, 100 mM KCl, 3 mM MgCl2) was added to a 0.5 μL aliquot of 1 mM ARK-547 in DMSO. The reaction was incubated for 10 min at 37° C., irradiated with long wave UV light (˜365 nm) for 30 min in a UV crosslinker (Fisher Scientific), and then kept on ice.
The samples of cross-linked RNA were diluted to a final volume of 20 μL and final reaction conditions of 1×T4 RNA ligase buffer (New England Biolabs), 5 U/μL T4 RNA ligase 2, truncated KQ (New England Biolabs), 16.5% PEG-8000, and 0.5 μM universal miRNA cloning linker (New England Biolabs). The reaction was incubated in a thermal cycler for 2.5 h cycling between 5 min at 16° C. and 3 min at 25° C. The RNA was then purified using Agencourt AMPure XP beads (Beckman Coulter) using the standard protocol from the manufacturer. […]
To remove excess primer, the sample was mixed with 4.5 μL of ExoSAP-IT, incubated at 37° C. for 15 min, and then quenched with 1 μL of 0.5 M EDTA pH 8. […] The concentration was determined by absorbance at 260 nm. […]
The concentrations of different PCR products were measured using the Denovix dsDNA fluorescence quantitation kit (Denovix) and multiplexed at equal concentrations with a 20% PhiX spike-in. Sequencing was performed on an Illumina MiSeq with 150 bp paired-end reads using the standard manufacturer protocol.

Aptamer 21 [3] = assay: Capture of Aptamer 21 with click-biotinylated probes; details: Aptamer 21 or Aptamer 21-E
Experimental: A 50 μL sample of 1 μM folded Aptamer 21 or Aptamer 21-E solution in folding buffer (20 mM TrisHCl pH 8, 100 mM KCl, 3 mM MgCl2) was added to a 0.5 μL aliquot of 0.5 mM ARK-729, ARK-2058, ARK-816, or ARK-2059 in DMSO or a DMSO-only control. The solution was incubated at 37° C. for 1 h and then irradiated with long wave UV light (˜365 nm) for 30 min in a UV crosslinker (Fisher Scientific). To this solution was added 0.5 μL of 10 mM DBCO-biotin (Click Chemistry Tools, cat. #A105) and 2 μL of 0.5 M EDTA pH 8 and then the solution was incubated at 65° C. for 2 h. The RNA was ethanol precipitated by adding 35 μL of water, 2 uL of 5 mg/mL glycogen, 10 μL 3 M NaOAc pH 5, and 250 μL ethanol, incubating at −80° C. for 1 h, centrifuging at 20000×g for 30 min, washing the pellet twice with 500 μL of 70% ethanol, and then air drying the pellet.
The RNA pellet was redissolved in 50 μL of 1× bind/wash buffer (20 mM TrisHCl pH 7, 100 mM KCl, 0.1% Tween-20). A 50 μL aliquot of MyOne Streptavidin C1 Dynabead slurry (Thermo) was captured on a magnet, washed twice with 50 μL of 1× bind/wash buffer, and then resuspended in 50 μL of the crosslinked RNA sample. The bead suspension was rotated at room temperature for 30 min and then washed twice with 100 μL of 1× bind/wash solution. […]

cross-linking with Apt21 RNA (RT pausing) (Aptamer 21 [1]; 1 uM RNA, 10 uM probe (9 uM PreQ1 probe), UV ~360 nm) | binding to negative control Aptamer 21-E (Aptamer 21-E) | SMILES | shortened sequences produced in PEARL-seq reverse transcriptase pausing gel assay (Aptamer 21 [1]; FIG. 52) | covalent modification of the RNA by LC-MS (Aptamer 21 [2]) [%] | photoadduct with Aptamer 21-E (Aptamer 21-E) | RT pausing peaks after click-biotinylation and avidin bead enrichment (Aptamer 21 [3])
specific and UV-dependent cross-linking | does not bind | COC(=O)C1=C(COCc2cn(CCOCCOCCNC(=O)CCC3(C)N=N3)nn2)NC(c2ccncc2)=NC1c1ccc(F)cc1Cl (stereo not drawn) [ARK-547] | shortened sequences of particular lengths | 5 | no photoadduct | 
 |  | COC(=O)C1=C(COCc2cn(CCOCCOCCNC(=O)c3cc(CN=[N+]=[N-])cc(N=[N+]=[N-])c3)nn2)NC(c2ccncc2)=NC1c1ccc(F)cc1Cl (stereo not drawn) [ARK-729] |  |  |  | RT pausing peaks specific to Aptamer 21
